# Source: patent publication US9169295B2, “Macrocycles and macrocycle stabilized peptides” (Bristol-Myers Squibb Company, priority 2010, dated 2015)
# Where two headings read alike, the source gives them in different places.
# Key:
# [1] = other bond
# [2] = far-UV circular dichroism (CD) spectra with secondary structure estimated by deconvolution (α-helicity of MSP vs linear peptide); type: physicochemical; conditions: 25° C.
# Procedure: To examine the α-helicity of the macrocycle stabilized peptides prepared according to the methods of the present invention, the far-UV circular dichrosim (CD) spectra of linear and macrocyclic peptides were measured and compared. Linear peptide of Example 93 and MSP of Example 93 as dry powder were prepared. A sample of each was weighed into a fresh 20 mL glass vial, and dissolved in anhydrous methanol (B&J), with vortexing for ˜1 min, to yield solutions with concentrations of 200 μM. The concentrations were based on the observed mass of peptide and the respective formula weights. The solutions were transferred to 1.8 mL polypropylene tubes, and centrifuged in a table top microcentrifuge for 5 min at rt and 14,000 rpm to pellet any insoluble material. The supernatants were transferred to clean 1.8 mL tubes for preparing final samples for analysis by circular dichroism (CD). Two sets of samples were prepared, one in 100% methanol at 200 μM peptide, the other in 50% aqueous methanol at 100 μM peptide prepared by adding an equal volume of ddH2O to stock methanol solutions.
# Samples were transferred to clean 1 mm quartz cuvettes and CD analysis performed in a JASCO J=815 instrument, and temperature maintained at 25° C. Each peptide sample was scanned from 200-450 nm, using a bandwidth of 1.00 nm, standard sensitivity, data pitch of 0.1 nm, digital integration time of 4.0 sec, a scan speed of 20 nm/min, and 6 acquisitions averaged per sample. Blank solvent samples (100% methanol and 50% aqueous methanol) were recorded simultaneously and subtracted from the peptide spectra prior to final analysis. For calculation of mean residue molar ellipticity (Θ^MRW), the peptide concentration was multiplied by 12 to reflect the number of peptide residues in each molecule. Following blank corrections, the CD data for each peptide in each solvent was corrected for total mean residue ellipticity, and the secondary structure composition estimated by deconvolution using CDPRO module within the JASCO software. Three different algorithms were used for convolution (SELCON, CDSSTR and CONTIN), using the data obtained from 200-240 nm and a 56 protein reference data set. Each algorithm yielded similar distribution of secondary structure elements, and the final results reported as the mean and standard deviation from the three deconvolutions.
# The deconvolution algorithms yield secondary structural elements of two types of α-helical structure, two types of […] structure, β-turn structure, and unstructured or random structure. The results reflect the average of summed α-helical forms, summed β-strand forms, the β-turn and unstructured forms from the three algorithms for the peptides in 100% methanol. The overlaid spectra illustrate the difference in signal in the far uv-region (200-240 nm) for the two related peptides in 100% methanol.
# [3] = the molecule shown is the open-chain precursor; other bond; 16-membered ring; TfOH; MeNO2; 13.4 mM; 25.0 °C
# [4] = from (5-(hydroxymethyl)thiazol-2-yl)-Val(D/L)-Ala-Ala-Tyr-NH2?, 19-membered ring, TfOH, MeNO2, 11.0 mM, 25.0 °C, 2 steps
# [5] = 50% aqueous methanol, 100 μM peptide
# [6] = 100% methanol, 200 μM peptide, CD 200-240 nm, mean of three deconvolution algorithms
# [7] = from (5-(hydroxymethyl)thiazol-2-yl)-Val(D/L)-Gly-Tyr-NH2?, 16-membered ring, TfOH, MeNO2, 25.0 °C, 2 steps
# [8] = from (5-(hydroxymethyl)thiazol-2-yl)-Val(D/L)-Ala-Ala-Ala-Ala-Tyr-NH2?, 25-membered ring, TfOH, MeNO2, 6.0 mM, 25.0 °C, 2 steps
compound,measurement,setting,value
CC[C@H](C)[C@@H]1NC(=O)[C@@H](NC(=O)OCC2c3ccccc3-c3ccccc32)Cc2ccc(OC)c(c2)CC2=CN=C(NCC(=O)NC[C@@H](C(=O)O)NC(=O)[C@H](CCC(=O)OC)NC(=O)CNC1=O)S2 [Macrocycle],"ring closure, yield after HPLC","[1]; from (5S,8S,14S,17S)-8-((S)-sec-butyl)-1-(9H-fluoren-9-yl)-17-((2-((5-(hydroxymethyl)thiazol-2-yl)amino)acetamido)methyl)-14-(3-methoxy-3-oxopropyl)-5-(4-methoxybenzyl)-3,6,9,12,15-pentaoxo-2-oxa-4,7,10,13,16-pentaazaoctadecan-18-oic acid, 26-membered ring, TfOH, NMM quench, nitromethane, 5.57 mM, 25.0 °C",40.3%
C[C@@H]1NC(=O)CNC2=NC=C(Cc3cc(ccc3O)C[C@@H](C(=O)NCC(=O)O)NC(=O)[C@H](C)NC(=O)[C@H](C)NC1=O)S2,"ring closure, yield after HPLC","[1]; from (5-(hydroxymethyl)thiazol-2-yl)-Gly-Ala-Ala-Ala-Tyr-Gly-OtBu?, 22-membered ring, TfOH, NMM quench, nitromethane, 11.8 mM, 25.0 °C",42%
CC(C)[C@H]1NC2=NC=C(Cc3cc(ccc3O)C[C@@H](C(N)=O)NC(=O)[C@H](C)NC(=O)[C@H](C)NC1=O)S2 [Thia-V(d)AAY],"ring closure, yield after HPLC",[1]; [4],16.4%
C[C@@H]1NC(=O)[C@H](C)NC(=O)[C@H](Cc2ccccc2)NC(=O)CNC2=NC=C(Cc3cc(ccc3O)C[C@@H](C(N)=O)NC1=O)S2 [Thia-G-F-A-A-Y—CONH2 (SEQ ID NO. 10) macrocycle],"ring closure, yield after HPLC","[1]; from (5-(hydroxymethyl)thiazol-2-yl)-Gly-Phe-Ala-Ala-Tyr-NH2?, 22-membered ring, TfOH, MeNO2, 11.5 mM, 25.0 °C, 2 steps",68.5%
C[C@@H]1NC(=O)[C@H](C)NC(=O)[C@H](C)NC(=O)[C@@H](N)Cc2ccc(O)c(c2)CC2=CN=C(NCCCNC1=O)S2 [Macrocycle],"ring closure, yield after HPLC","[1]; from Boc-Tyr-Ala-Ala-Ala-NH-(CH2)3-NH-[5-(hydroxymethyl)thiazol-2-yl]?, 24-membered ring, TfOH, NMM quench, nitromethane, 9.9 mM",15.4%
"C[C@H](NC(=O)OCC1c2ccccc2-c2ccccc21)C(=O)N[C@@H](C)C(=O)NNC(=O)[C@@H](C)[C@@H](Cc1ccc(O)cc1)C(=O)N[C@@H](C)C(=O)N[C@@H](C)C(=O)NCC(=O)N[C@H]1Cc2ccc(O)c(c2)CC2=CN=C(NCCCNC(=O)[C@H](C)NC(=O)[C@H](C)NC(=O)[C@H](C)NC1=O)S2 [Example 91, C-terminal Macrocycle Peptide]",unstructured conformation,[2]; [5],32%
same,α-helical structure,[2]; [5],23%
same,β-structure,[2]; [5],45%
same,unstructured conformation,[2]; [6],27%
same,α-helical conformation,[2]; [6],53%
same,β-structure (β-strand and β-turn conformation),[2]; [6],22%
C[C@@H]1NC(=O)CNC2=NC=C(Cc3cc(ccc3O)C[C@@H](C(N)=O)NC(=O)[C@H](C)NC1=O)S2 [“Thia-G-A-A-Y” (SEQ ID NO. 9) Macrocycle],"ring closure, yield after HPLC","[1]; from (5-(hydroxymethyl)thiazol-2-yl)-Gly-Ala-Ala-Tyr-NH2?, 19-membered ring, TfOH, MeNO2, 14.7 mM, 25.0 °C, 2 steps",70.2%
CC(C)[C@H]1NC2=NC=C(Cc3cc(ccc3O)C[C@@H](C(N)=O)NC(=O)CNC1=O)S2 [Thia-V(l)GY],"ring closure, yield after HPLC",[1]; [7],19%
CC(C)[C@H]1NC2=NC=C(Cc3cc(ccc3O)C[C@@H](C(N)=O)NC(=O)CNC1=O)S2 [Thia-V(d)GY],"ring closure, yield after HPLC",[1]; [7],22%
(5-(hydroxymethyl)thiazol-2-yl)-Gly-Gly-Tyr-NH2?,"ring closure, conversion",[3],60%
C[C@@H]1NC(=O)CNC2=NC=C(Cc3cc(ccc3O)C[C@@H](C(=O)NCC(=O)O)NC(=O)[C@H](C)NC(=O)[C@H](C)NC1=O)S2 [Macrocycle],"ring closure, yield after HPLC","[1]; from (5-(hydroxymethyl)thiazol-2-yl)-Gly-Ala-Ala-Ala-Tyr-Gly-OtBu?, 22-membered ring, TfOH, NMM quench, nitroethane, 5.7 mM, 25.0 °C",35%
CC(C)[C@@H]1NC2=NC=C(Cc3cc(ccc3O)C[C@@H](C(N)=O)NC(=O)CNC(=O)[C@H](C)NC(=O)[C@H](C)NC1=O)S2 [Thia-V(l)AAGY (SEQ ID NO. 13) Macrocycle],"ring closure, yield after HPLC","[1]; from (5-(hydroxymethyl)thiazol-2-yl)-Val-Ala-Ala-Gly-Tyr-NH2?, 22-membered ring, TfOH, MeNO2, 6.45 mM, 25.0 °C, 2 steps",52.7%
CC(C)[C@@H]1NC2=NC=C(Cc3cc(ccc3O)C[C@@H](C(N)=O)NC(=O)[C@H](C)NC(=O)[C@H](C)NC(=O)[C@H](C)NC(=O)[C@H](C)NC1=O)S2 [Thia-V(d)AAAAY],"ring closure, yield after HPLC",[1]; [8],22.3%
CC(C)[C@@H]1NC2=NC=C(Cc3cc(ccc3O)C[C@@H](C(N)=O)NC(=O)[C@H](C)NC(=O)[C@H](C)NC(=O)[C@H](C)NC(=O)[C@H](C)NC1=O)S2 [Thia-V(l)AAAAY (SEQ ID NO. 12)],"ring closure, yield after HPLC",[1]; [8],35.2%
COc1ccc2cc1CC1=CN=C(NCC(=O)N[C@@H](C)C(=O)NCC(=O)NCC(=O)N3C[C@H](O)[C@@H](O)[C@H]3C2)S1 [Macrocycle Anisomycin-GGAG-Thia],"ring closure, yield after HPLC","[1]; from (S)-N-(2-(2-((2R,3S,4S)-3,4-Dihydroxy-2-(4-methoxybenzyl)pyrrolidin-1-yl)-2-oxoethylamino)-2-oxoethyl)-2-(2-(5-(hydroxymethyl)thiazol-2-ylamino)acetamido)propanamide?, 22-membered ring",53.2%
C[C@H](NC(=O)[C@H](C)NC(=O)CNC(=O)[C@@H]1Cc2ccc(O)c(c2)CC2=CN=C(NCC(=O)N[C@@H](C)C(=O)N[C@@H](C)C(=O)N[C@@H](C)C(=O)N1)S2)C(N)=O [Macrocycle],"ring closure, yield after HPLC","[1]; from (5-(hydroxymethyl)thiazol-2-yl)-Gly-Ala-Ala-Ala-Tyr-Gly-Ala-Ala-NH2?, 22-membered ring, TfOH, NMM quench, nitroethane/TfOH 1:1, 5.4 mM, 25.0 °C",62%
CC(C)[C@H]1NC2=NC=C(Cc3cc(ccc3O)C[C@@H](C(N)=O)NC(=O)[C@H](C)NC(=O)[C@H](C)NC1=O)S2 [Thia-V(l)AAY (SEQ ID NO. 11)],"ring closure, yield after HPLC",[1]; [4],11%
C[C@@H]1NC(=O)CNC2=NC=C(Cc3cc(ccc3O)C[C@@H](C(N)=O)NC1=O)S2 [“Thia-G-A-Y” Macrocycle],"ring closure, yield after HPLC","[1]; from (5-(hydroxymethyl)thiazol-2-yl)-Gly-Ala-Tyr-NH2, 16-membered ring, TfOH, MeNO2, 7.0 mM, 25.0 °C",56%
CC(C)[C@H]1NC2=NC=C(Cc3cc(ccc3O)C[C@@H](C(N)=O)NC(=O)CNC(=O)[C@H](C)NC(=O)[C@H](C)NC1=O)S2 [Thia-V(d)AAGY Macrocycle],"ring closure, yield after HPLC","[1]; from (5-(hydroxymethyl)thiazol-2-yl)-dVal-Ala-Ala-Gly-Tyr-NH2?, 22-membered ring, TfOH, MeNO2, 6.83 mM, 25.0 °C, 2 steps",38.7%
